The values below are quoted from earlier work in patent US20140234430A1, “PHARMACEUTICAL METHODS AND TOPICAL COMPOSITIONS CONTAINING ACITRETIN” (DOUGLAS PHARMACEUTICALS LTD., priority 2011, published 2014).

With `COc1cc(C)c(/C=C/C(C)=C/C=C/C(C)=C/C(=O)O)c(C)c1C` [acitretin, (2E,4E,6E,8E)-9-(4-methoxy-2,3,6-trimethylphenyl)-3,7-dimethylnona-2,4,6,8-tetraenoic acid], under “suitable alcohols”, the Solubility in alcohols result is on record as “quite poorly soluble”. Besides, where the note is “water”, the Solubility in water entry is recorded as “very poorly soluble”.
